Among the data in patent publication US11708348B2, “Protease inhibitors for treatment of coronavirus infections” (The Scripps Research Institute, priority 2021, dated 2023) are EC50 values, retold here.

Bounds are passed on as bounds.

For orientation: EC50 means the concentration needed to bring the measured effect to its halfway point.

For one test, the system named is SARS-CoV-2 strain USA-WA1/2020. Description: microbe, parasite or virus in culture. The format is cell-based. The note with it: Severe acute respiratory syndrome coronavirus 2, HeLa-ACE2, 24 h, HeLa-ACE2 cells, SARS-CoV-2 infection, 24 h; given as bound; read-out: EC50, uM (Hela).
In the case of `CO[C@@H]1C[C@@H](C(=O)N[C@@H](C[C@@H]2CCNC2=O)C(=O)COC(F)(F)F)N(C(=O)C(=O)NC(C)(C)C)C1` [Compound 537, (2S,4R)-1-(2-(tert-butylamino)-2-oxoacetyl)-4-methoxy-N-((S)-3-oxo-1-((S)-2-oxopyrrolidin-3-yl)-4-(trifluoromethoxy)butan-2-yl)pyrrolidine-2-carboxamide], the EC50 is above 1 µM.

The test is the same for the next values; noted with them: Severe acute respiratory syndrome coronavirus 2, HeLa-ACE2, 24 h, HeLa-ACE2 cells, SARS-CoV-2 infection, 24 h; read-out: EC50, uM (Hela).
As for `O=C(NC1CC(F)(F)C1)C(=O)N1C[C@@H]2CCC[C@@H]2[C@H]1C(=O)N[C@@H](C[C@@H]1CCNC1=O)C(=O)COC(F)(F)F` [Compound 523, (1S,3aR,6aS)-2-(2-((3,3-difluorocyclobutyl)-amino)-2-oxoacetyl)-N-((S)-3-oxo-1-((S)-2-oxopyrrolidin-3-yl)-4-(trifluoromethoxy)butan-2-yl)octahydrocyclo-penta[c]pyrrole-1-carboxamide], the EC50 was below 0.05 µM.
The same measure, in the same setting: with `Cc1ccccc1NC(=O)C(=O)NC(CC1CCOCC1)C(=O)N[C@@H](C[C@@H]1CCNC1=O)C(=O)COC(F)(F)F` (stereo partly drawn) [Compound 524, N1-(1-oxo-1-(((S)-3-oxo-1-((S)-2-oxopyrrolidin-3-yl)-4-(trifluoromethoxy)butan-2-yl)amino)-3-(tetrahydro-2H-pyran-4-yl)propan-2-yl)-N2-(o-tolyl)oxalamide] the figure was below 0.05 µM; with `O=C(NC12CC(F)(C1)C2)C(=O)N1C[C@@H]2CCC[C@@H]2[C@H]1C(=O)N[C@@H](C[C@@H]1CCNC1=O)C(=O)COC(F)(F)F` [Compound 525, (1S,3aR,6aS)-2-(2-((3-fluorobicyclo[1.1.1]-pentan-1-yl)amino)-2-oxoacetyl)-N-((S)-3-oxo-1-((S)-2-oxopyrrolidin-3-yl)-4-(trifluoromethoxy)butan-2-yl)octahydrocyclo-penta[c]pyrrole-1-carboxamide], below 0.05 µM.
Same read-out and setting: next, `CC(C)(NC(=O)C(=O)N1C[C@@H]2CCC[C@@H]2[C@H]1C(=O)N[C@@H](C[C@@H]1CCNC1=O)C(=O)COC(F)(F)F)C(F)(F)F` [Compound 526, (1S,3aR,6aS)-N-((S)-3-oxo-1-((S)-2-oxopyrrolidin-3-yl)-4-(trifluoromethoxy)butan-2-yl)-2-(2-oxo-2-((1,1,1-trifluoro-2-methylpropan-2-yl)amino)acetyl)-octahydrocyclopenta[c]-pyrrole-1-carboxamide]: below 0.05 µM; `Cc1ccccc1NC(=O)C(=O)N1CC2(CC2)C[C@H]1C(=O)N[C@@H](C[C@@H]1CCNC1=O)C(=O)COC(F)(F)F` [Compound 527, (S)-N-((S)-3-oxo-1-((S)-2-oxopyrrolidin-3-yl)-4-(trifluoromethoxy)butan-2-yl)-5-(2-oxo-2-(o-tolylamino)acetyl)-5-azaspiro[2.4]heptane-6-carboxamide]: below 0.05 µM.
For the compound `CC(C)(C)C[C@H](NC(=O)C(=O)Nc1ccccc1F)C(=O)N[C@@H](C[C@@H]1CCNC1=O)C(=O)COC(F)(F)F` [Compound 528, N1-((S)-4,4-dimethyl-1-oxo-1-(((S)-3-oxo-1-((S)-2-oxopyrrolidin-3-yl)-4-(trifluoromethoxy)butan-2-yl)amino)pentan-2-yl)-N2-(2-fluorophenyl)-oxalamide], the EC50 is below 0.05 µM.
With `CN(C(=O)C(=O)NC(C)(C)C)[C@H](C(=O)N[C@@H](C[C@@H]1CCNC1=O)C(=O)COC(F)(F)F)C1CCCC1` [Compound 529, N1-(tert-butyl)-N2-((S)-1-cyclopentyl-2-oxo-2-(((S)-3-oxo-1-((S)-2-oxopyrrolidin-3-yl)-4-(trifluoromethoxy)butan-2-yl)amino)ethyl)-N2-methyloxalamide], the EC50 lay in the range of 0.05 to 0.2 µM.
Turning to `O=C(Nc1ccccc1F)C(=O)N1CC2(CCOCC2)CC1C(=O)N[C@@H](C[C@@H]1CCNC1=O)C(=O)COC(F)(F)F` (stereo partly drawn) [Compound 530, 2-(2-((2-fluorophenyl)amino)-2-oxoacetyl)-N-((S)-3-oxo-1-((S)-2-oxopyrrolidin-3-yl)-4-(trifluoromethoxy)butan-2-yl)-8-oxa-2-azaspiro[4.5]decane-3-carboxamide], the EC50 is 0.5 to 1 µM.
On the same count and under the same terms, with `CC(C)(C)NC(=O)C(=O)N1CC2(CCCCC2)CC1C(=O)N[C@@H](C[C@@H]1CCNC1=O)C(=O)COC(F)(F)F` (stereo partly drawn) [Compound 531, 2-(2-(tert-butylamino)-2-oxoacetyl)-N-((S)-3-oxo-1-((S)-2-oxopyrrolidin-3-yl)-4-(trifluoromethoxy)butan-2-yl)-2-azaspiro[4.5]decane-3-carboxamide] the figure was below 0.05 µM.
The same measure, in the same setting: next, `CC(C)(C)C[C@H](NC(=O)c1cc(C(F)F)on1)C(=O)N[C@@H](C[C@@H]1CCNC1=O)C(=O)COC(F)(F)F` [Compound 532, 5-(difluoromethyl)-N-((S)-4,4-dimethyl-1-oxo-1-(((S)-3-oxo-1-((S)-2-oxopyrrolidin-3-yl)-4-(trifluoromethoxy)butan-2-yl)amino)pentan-2-yl)isoxazole-3-carboxamide]: below 0.05 µM.
Regarding `Cn1ccc(C(=O)N2C[C@@H]3CCC[C@@H]3[C@H]2C(=O)N[C@@H](C[C@@H]2CCNC2=O)C(=O)COC(F)(F)F)n1` [Compound 533, (1S,3aR,6aS)-2-(1-methyl-1H-pyrazole-3-carbonyl)-N-((S)-3-oxo-1-((S)-2-oxopyrrolidin-3-yl)-4-(trifluoromethoxy)butan-2-yl)octahydrocyclo-penta[c]pyrrole-1-carboxamide], the EC50 lay within 0.5 to 1 µM.
Take `Cn1ccc(NC(=O)C(=O)N2C[C@@H]3CCC[C@@H]3[C@H]2C(=O)N[C@@H](C[C@@H]2CCNC2=O)C(=O)COC(F)(F)F)n1` [Compound 534, (1S,3aR,6aS)-2-(2-((l-methyl-1H-pyrazol-3-yl)amino)-2-oxoacetyl)-N-((S)-3-oxo-1-((S)-2-oxopyrrolidin-3-yl)-4-(trifluoromethoxy)butan-2-yl)octahydrocyclo-penta[c]pyrrole-1-carboxamide]: the EC50 was in the range of 0.05 to 0.2 µM.
Take `Cn1ccc(NC(=O)C(=O)N2C[C@H]3[C@@H]([C@H]2C(=O)N[C@@H](C[C@@H]2CCNC2=O)C(=O)COC(F)(F)F)C3(C)C)n1` [Compound 535, (1R,2S,5S)-6,6-dimethyl-3-(2-((l-methyl-1H-pyrazol-3-yl)amino)-2-oxoacetyl)-N-((S)-3-oxo-1-((S)-2-oxopyrrolidin-3-yl)-4-(trifluoromethoxy)butan-2-yl)-3-azabicyclo-[3.1.0]hexane-2-carboxamide]: the EC50 lay within 0.05 to 0.2 µM.
In the case of `CC1(C)[C@@H]2[C@@H](C(=O)N[C@@H](C[C@@H]3CCNC3=O)C(=O)COC(F)(F)F)N(C(=O)C(=O)NC3CC(F)(F)C3)C[C@@H]21` [Compound 536, (1R,2S,5S)-3-(2-((3,3-difluorocyclo-butyl)amino)-2-oxoacetyl)-6,6-dimethyl-N-((S)-3-oxo-1-((S)-2-oxopyrrolidin-3-yl)-4-(trifluoromethoxy)butan-2-yl)-3-azabicyclo-[3.1.0]hexane-2-carboxamide], the EC50 is 0.05 to 0.2 µM.
On to `CC(C)(C)C[C@H](NC(=O)c1cnc(C(F)(F)F)s1)C(=O)N[C@@H](C[C@@H]1CCNC1=O)C(=O)COC(F)(F)F` [Compound 538, N-((S)-4,4-dimethyl-1-oxo-1-(((S)-3-oxo-1-((S)-2-oxopyrrolidin-3-yl)-4-(trifluoromethoxy)butan-2-yl)amino)pentan-2-yl)-2-(trifluoromethyl)-thiazole-5-carboxamide], for which the EC50 is below 0.05 µM.
